In the NIST ThermoML archive (doi:10.1016/j.jct.2008.02.020):

Conditions: Liquid, Buoyancy - hydrostatic balance with magnetic suspension - one sinker

CCCCCCCCC [nonane]
Conditions | mass density [kg/m3]
233.15 K, 101.46 kPa | 763.962
233.15 K, 1176.1 kPa | 764.563
233.15 K, 2178.2 kPa | 765.126
233.15 K, 4167 kPa | 766.231
233.15 K, 5936.5 kPa | 767.203
233.15 K, 8144.5 kPa | 768.395
233.15 K, 10066 kPa | 769.42
233.15 K, 12148 kPa | 770.516
233.15 K, 14076 kPa | 771.516
233.15 K, 16087 kPa | 772.548
233.15 K, 18067 kPa | 773.551
233.15 K, 19984 kPa | 774.511
233.15 K, 21990 kPa | 775.502
233.15 K, 24044 kPa | 776.506
233.15 K, 25990 kPa | 777.446
233.15 K, 27927 kPa | 778.373
233.15 K, 29906 kPa | 779.308
253.15 K, 101.82 kPa | 748.678
253.15 K, 1135.3 kPa | 749.335
253.15 K, 2178.6 kPa | 749.992
253.15 K, 3967.8 kPa | 751.107
253.15 K, 6147.5 kPa | 752.446
253.15 K, 8138 kPa | 753.648
253.15 K, 10112 kPa | 754.82
253.15 K, 12111 kPa | 755.991
253.15 K, 14130 kPa | 757.156
253.15 K, 16140 kPa | 758.299
253.15 K, 18106 kPa | 759.398
253.15 K, 20064 kPa | 760.484
253.15 K, 22026 kPa | 761.552
253.15 K, 23955 kPa | 762.59
253.15 K, 25972 kPa | 763.661
253.15 K, 27913 kPa | 764.677
253.15 K, 29967 kPa | 765.739
273.15 K, 102.52 kPa | 733.389
273.15 K, 1156.8 kPa | 734.143
273.15 K, 2138 kPa | 734.842
273.15 K, 4026 kPa | 736.166
273.15 K, 6169.4 kPa | 737.644
273.15 K, 8161.4 kPa | 738.99
273.15 K, 10122 kPa | 740.29
273.15 K, 12106 kPa | 741.586
273.15 K, 14101 kPa | 742.864
273.15 K, 16067 kPa | 744.108
273.15 K, 18074 kPa | 745.354
273.15 K, 20036 kPa | 746.555
273.15 K, 22000 kPa | 747.737
273.15 K, 23996 kPa | 748.923
273.15 K, 25994 kPa | 750.093
273.15 K, 27982 kPa | 751.238
273.15 K, 29876 kPa | 752.316
293.15 K, 101.69 kPa | 717.968
293.15 K, 1184.3 kPa | 718.847
293.15 K, 2129.2 kPa | 719.604
293.15 K, 3960.5 kPa | 721.055
293.15 K, 6115.4 kPa | 722.729
293.15 K, 7981.6 kPa | 724.145
293.15 K, 10015 kPa | 725.663
293.15 K, 12149 kPa | 727.214
293.15 K, 13981 kPa | 728.526
293.15 K, 16170 kPa | 730.062
293.15 K, 17943 kPa | 731.285
293.15 K, 20200 kPa | 732.813
293.15 K, 22156 kPa | 734.115
293.15 K, 24158 kPa | 735.421
293.15 K, 26136 kPa | 736.696
293.15 K, 28126 kPa | 737.958
293.15 K, 29978 kPa | 739.115
313.15 K, 98.73 kPa | 702.339
313.15 K, 1168.7 kPa | 703.323
313.15 K, 2131.9 kPa | 704.205
313.15 K, 3967.4 kPa | 705.852
313.15 K, 6162.3 kPa | 707.777
313.15 K, 8113.9 kPa | 709.449
313.15 K, 10024 kPa | 711.038
313.15 K, 12173 kPa | 712.791
313.15 K, 14170 kPa | 714.384
313.15 K, 16194 kPa | 715.964
313.15 K, 17956 kPa | 717.315
313.15 K, 20057 kPa | 718.889
313.15 K, 22191 kPa | 720.459
313.15 K, 24136 kPa | 721.862
313.15 K, 26139 kPa | 723.282
313.15 K, 28073 kPa | 724.629
313.15 K, 29972 kPa | 725.932
333.15 K, 102.84 kPa | 686.431
333.15 K, 1137.5 kPa | 687.521
333.15 K, 2113.9 kPa | 688.539
333.15 K, 4162.7 kPa | 690.632
333.15 K, 6145.3 kPa | 692.599
333.15 K, 8151.9 kPa | 694.535
333.15 K, 10024 kPa | 696.296
333.15 K, 12114 kPa | 698.208
333.15 K, 14127 kPa | 700.005
333.15 K, 15989 kPa | 701.627
333.15 K, 18027 kPa | 703.362
333.15 K, 19954 kPa | 704.977
333.15 K, 22112 kPa | 706.723
333.15 K, 24080 kPa | 708.292
333.15 K, 26038 kPa | 709.821
333.15 K, 28054 kPa | 711.366
333.15 K, 29912 kPa | 712.772
353.15 K, 97.13 kPa | 671.217
353.15 K, 2136.7 kPa | 672.617
353.15 K, 6141.9 kPa | 677.222
353.15 K, 8110.9 kPa | 679.378
353.15 K, 10054 kPa | 681.439
353.15 K, 12124 kPa | 683.57
353.15 K, 14144 kPa | 685.589
353.15 K, 15989 kPa | 687.385
353.15 K, 18011 kPa | 689.305
353.15 K, 20036 kPa | 691.174
353.15 K, 21991 kPa | 692.938
353.15 K, 23965 kPa | 694.678
353.15 K, 25968 kPa | 696.403
353.15 K, 27955 kPa | 698.078
353.15 K, 29939 kPa | 699.718
373.15 K, 102.37 kPa | 653.427
373.15 K, 1227.9 kPa | 655.018
373.15 K, 2148.9 kPa | 656.298
373.15 K, 4131.5 kPa | 658.968
373.15 K, 6127 kPa | 661.551
373.15 K, 8138.8 kPa | 664.058
373.15 K, 10022 kPa | 666.323
373.15 K, 12112 kPa | 668.749
373.15 K, 14119 kPa | 671.003
373.15 K, 16134 kPa | 673.197
373.15 K, 18104 kPa | 675.276
373.15 K, 20078 kPa | 677.302
373.15 K, 22064 kPa | 679.286
373.15 K, 23988 kPa | 681.158
373.15 K, 26124 kPa | 683.184
373.15 K, 28010 kPa | 684.93
373.15 K, 29905 kPa | 686.647
